“Also recorded” adds a separate entry of the source.

One series deals with wild-type male mice. As to the kind of experiment: Maximal electroshock seizure (MES) test. Type of series: in vivo, mouse. The following applies: 0.02 to 2 mg/kg i.p., 30 and 120 min post-injection. Here is the method:
Seizures Induced in the Maximal Electroshock Seizure (MES) Test
Experiments were carried out in accordance with the National Institute of Neurological Disorders and Stroke (NINDS) Epilepsy Therapy Screening Program (https://panache.ninds.nih.gov/TestDescription/TestMES). The MES test was carried out using wild-type male mice. MES is a model for generalized tonic-clonic seizures and provides an indication of a compound's ability to prevent seizure spread when all neuronal circuits in the brain are maximally active (White H S, Johnson M, Wolf H H, Kupferberg H J. The early identification of anticonvulsant activity: role of the maximal electroshock and subcutaneous pentylenetetrazol seizure models. Ital J Neurol sci. 1995; 16:73-7). These seizures are highly reproducible and are electrophysiologically consistent with human seizures. Seizures were induced by a high frequency (60 Hz) of alternating current at 50 mA over a short duration (0.2 sec) delivered through corneal electrodes. Prior to stimulation, corneas were irrigated with 0.5% tetracaine hydrochloride for local anesthesia and 0.9% saline to improve electrical conductivity. Seizures induced by MES are characterized by tonic extension of forelimbs and hindlimbs that is followed by brief episodes of clonic activity of the forelimbs and hindlimbs. […]
For orientation: In the maximal electroshock model the usual endpoint is tonic extension of the hind limbs.

The next series deals with wild-type male CF-1 mice. Kind of series: Seizures induced by corneal electrical stimulation (CES, 6 Hz, 44 mA). Type of series: in vivo, mouse. Here is the method: Seizures Induced by Corneal Electrical Stimulation (CES) in Wild-Type Mice
Experiments were carried out in accordance with the National Institute of Neurological Disorders and Stroke (NINDS) Epilepsy Therapy Screening Program (https://panache.ninds.nih.gov/TestDescription/Test6HZ). The CES test was carried out using wild-type male CF-1 mice. Seizures were induced by a low frequency (6 Hz, 0.2 msec rectangular pulse), long-duration (3 sec), 44 mA current (double the current producing seizures in 97% of animals) delivered through corneal electrodes (Barton M E, Klein B D, Wolf H H, White H S. Pharmacological characterization of the 6 Hz psychomotor seizure model of partial epilepsy. Epilepsy Res. 2001; 47:217-27). A drop of 0.5% tetracaine hydrochloride in 0.9% saline (anesthetic/electrolyte) solution was applied to the eyes just prior to the placement of corneal electrodes. The seizure in mice is characterized by an initial momentary stun followed immediately by jaw clonus, forelimb clonus, twitching of the vibrissae, and “Straub tail”. Animals not displaying this behavior within the one-minute observation period are considered “protected” from seizures.
Testing for anti-seizure activity in the CES model was performed with 4 male mice/dose/time point. […] of NLX-101 (0.02, 0.06, 0.5, 1 and 2 mg/kg i.p.) and two timepoints (30 and 120 min after drug administration) were tested.

In the next series the test system is FMR1 knock-out (KO) mice. As to the kind of experiment: Audiogenic tonic-clonic seizures (TCS) in FMR1 transgenic mice. Type of series: in vivo, mouse. Here is the method: Audiogenic Tonic-Clonic Seizures (TCS) in FMR1 Transgenic Mice
FMR1 knock-out (KO) mice were bred and weaned at postnatal day 21 (P21), and all mice were tested between P21 to P23. NLX-101 was administered at doses of 0.6, 1.2, 1.8 and 2.4 mg/kg i.p. Control FMR1 KO mice received saline. NLX-101 or saline was injected 10 min before subjecting the mice to the auditory stimulus.
To differentiate each mouse for post-hoc video analysis, mice were color coded prior to drug or saline administration. Mice (up to 4/cage) were then put in a cage with a lid; after 10 min, a speaker was placed on top of the lid, and the cage placed in a sound attenuation booth (Gretch-Ken Inc., OR); the auditory stimulus was a continuously alternating up and down frequency modulated sweep with frequencies between 2-8 kHz, presented at an intensity between 105-110 dB for 15 min. The procedure lasted a total of 20 min starting with 5 min of habituation (without a sound stimulus). The full 20-min procedure was video recorded for off-line analysis.
The typical behavior of FMR1 knock-out mice subjected to loud audio stimulus includes tonic-clonic seizures (TCS: the mouse lays on the cage bottom with hindlimb extension), and death by respiratory arrest (manifested by a deep respiratory gasp and relaxation of pinna).
The latency time (from the stimulus onset) to the occurrence of TCS and death were recorded with a stopwatch (precision: 1 sec). Survival analysis was used to analyze the probability of TCS or death by log-rank test.

The test system of series [1] is mouse model of the Rett syndrome. Conditions: cited from earlier work.
A further series concerns humans. Conditions: cited from earlier work.

On to `Cc1cnc(CNCC2(F)CCN(C(=O)c3ccc(F)c(Cl)c3)CC2)nc1` [NLX-101], for which the “occurrence of seizures in the MES test” value with wild-type male mice is on record as “did not exhibit any anti-seizure activity; also recorded: did not affect the occurrence of seizures”. In the series on wild-type male CF-1 mice (0.02 to 2 mg/kg i.p., 30 and 120 min), the “anti-seizure activity in the CES test” value is “did not exhibit any anti-seizure activity”. The “mice with reduced seizure occurrence in the CES test” value in the series with wild-type male CF-1 mice (highest dose tested (2 mg/kg i.p.), 30 min post injection) was 1 out of 4. In the series with FMR1 knock-out (KO) mice (0.6-2.4 mg/kg i.p., 10 min before auditory stimulus, significant effects at 1.2, 1.8 and 2.4 mg/kg), the “number of FMR1 knock-out mice that died” value is reported as “dose-dependently reduced”. Moreover, in the series with FMR1 knock-out (KO) mice (0.6-2.4 mg/kg i.p., 10 min before auditory stimulus, significant effects at 1.8 and 2.4 mg/kg), the “percentage of FMR1 knock-out mice displaying tonic-clonic seizures” value is “potently and efficaciously reduced seizures; also recorded: dose-dependently reduced”. Moreover, the “mice protected from death” value with FMR1 knock-out (KO) mice (audiogenic tonic-clonic seizure model in FMR1 knock-out mice) was “over 75%”. In addition, in series [1], the respiratory abnormalities entry is “improves the respiratory abnormalities”.

In the case of `N#Cc1ccc2[nH]cc(CCCCN3CCN(c4ccc5oc(C(N)=O)cc5c4)CC3)c2c1` [vilazodone], in the series with humans, the seizures in humans result is “induces seizures”.

The values above are taken from patent US11974992B2, “Use of serotonin 5-HT1A receptor agonists to treat diseases associated with sudden unexpected death in epilepsy” (Neurolixis, priority 2022, dated 2024).
